Consider eight molecules from US8829185B2 (Bayer HealthCare LLC, priority 2005, dated 2014).

One assay concerns the target T1, FGFR1-GST (Homo sapiens, UniProt P11362).
T1 construct: GST; made in house
The experiment in a line: FGFR-1 TR-FRET biochemical assay. Conditions: bounds given in nM. In outline: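 LANCE TR-FRET with 5 nM FGFR1-GST, 0.6 uM ATP, 25 nM biotin-poly GT in HEPES pH 7.5/MgCl2, 1% DMSO; compound added before enzyme, 1 h at room temperature. 665/615 nm ratio, background without ATP; % inhibition over 10 μM–0.128 nM final for IC50.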

Another assay has as its system HCT116 cells. The experiment in a line: Tumor cell proliferation (Alamar Blue), HCT116. The format is cell-based. To be noted: Homo sapiens, HCT-116, 72 h, HCT116, 72 h. The protocol: (§1) Human tumor cells (e.g., HCT116 or MDA-MB-231 cells), were seeded in a Costar 96-well plate at 3.0×10^3 cells/well and grown in 150 μl of RPMI complete media (Invitrogen Corporation, Grand Island, N.Y.) containing 10% fetal bovine serum (Hyclone, Logan, Utah) at 37° C. for 16 h in an incubator with 5% CO2. To each well, 50 μl of additional growth media containing 40 μM to 18 nM concentrations of compound with 0.4% DMSO was added. Cells were grown for another 72 h at 37° C. with 5% CO2. 20 μl of Alamar Blue (Trek Diagnostic Systems, Inc., Cleveland, Ohio) reagent was added to each well and incubated for 3 h at 37° C. Plates were read in a SpectraMax Gemini (Molecular Devices, CA) with 544 nm excitation and 590 nm emission wavelength. IC50 values were determined by linear regression analysis of log drug concentration versus percent inhibition.

The next assay concerns MDA-MB-231 cells. Nature of the assay: Tumor cell proliferation (Alamar Blue), MDA-MB-231. The class given is cell-based. To be noted: Homo sapiens, MDA-MB-231, 72 h. The protocol: as §1
Assay [1] concerns histone 3 phosphorylation in colon carcinoma (HCT116). The experiment in a line: p-Histone3 assay. The format is cell-based. To be noted: Homo sapiens, HCT-116, 24 h, HCT116, 24 hours treatment. The protocol: Compounds were assayed for the inhibition of histone 3 phosphorylation in colon carcinoma (HCT116). Briefly, 20,000 cells/well were seeded in a 96-well black-walled, poly-d-lysine plates in RPMI+10% FBS and incubated at 37° C. in 5% CO2 overnight. The following day, the cells were treated with compounds for 24 hours at 37° C. Following compound treatment; plates were centrifuged at 1000 rpm for 2 minutes and washed twice with 100 μl of cold sterile TBS. Cells were then fixed with cold 3.7% formaldehyde in TBS (4° C. for 1 hour) and then permeabalized with 0.1% Triton-X-100 in TBS (room temperature for 30 minutes). Plates were then washed with of 0.25% BSA-TBS and blocked with BSA solution for 1 hour at room temperature while shaking. The supernatant was removed and replaced with diluted primary antibody (anti-phospho-histone 3, serine 10, Cell Signaling) at 1:250 in 0.25% BSA-TBS and incubated overnight at 4° C. The plates were washed and treated with diluted secondary antibody (anti-rabbit Eu-labeled) at 1:10000 in 0.25% BSA-TBS (room temperature for 1 hour). The antibody solution was removed from each well and washed eight times. The wash buffer was replaced with 50 μl pre-warmed enhancement solution and mixed on the orbital shaker for 10 minutes. Fluorescence was detected with a Victor V Fluorescence Detector. The data are expressed as percent inhibition: % inhibition=100−((Signal with inhibitor-background)/(Signal without inhibitor-background))×100.

Where only a bound is given, the exact number is not on record here.

T1 sequence (P11362 22-822): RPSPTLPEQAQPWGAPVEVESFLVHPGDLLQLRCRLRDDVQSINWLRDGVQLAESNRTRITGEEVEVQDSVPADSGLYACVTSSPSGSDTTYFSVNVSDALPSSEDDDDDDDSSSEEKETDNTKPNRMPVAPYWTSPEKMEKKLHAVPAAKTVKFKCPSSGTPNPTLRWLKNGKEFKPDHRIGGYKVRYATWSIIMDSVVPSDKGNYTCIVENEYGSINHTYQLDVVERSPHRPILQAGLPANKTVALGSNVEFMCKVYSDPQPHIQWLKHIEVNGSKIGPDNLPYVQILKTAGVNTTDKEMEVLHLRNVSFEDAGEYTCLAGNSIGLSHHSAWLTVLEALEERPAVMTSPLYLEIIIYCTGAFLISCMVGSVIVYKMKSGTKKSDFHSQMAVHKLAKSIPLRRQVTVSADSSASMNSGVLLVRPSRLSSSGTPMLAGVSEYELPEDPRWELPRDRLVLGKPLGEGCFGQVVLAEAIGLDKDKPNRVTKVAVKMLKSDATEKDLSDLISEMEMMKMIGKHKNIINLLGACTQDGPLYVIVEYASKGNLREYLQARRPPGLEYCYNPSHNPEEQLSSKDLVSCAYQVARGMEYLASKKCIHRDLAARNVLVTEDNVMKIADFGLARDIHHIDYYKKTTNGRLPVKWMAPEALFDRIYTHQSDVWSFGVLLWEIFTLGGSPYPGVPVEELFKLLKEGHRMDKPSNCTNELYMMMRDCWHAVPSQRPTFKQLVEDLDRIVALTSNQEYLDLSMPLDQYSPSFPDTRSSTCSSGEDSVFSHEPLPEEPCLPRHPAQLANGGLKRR

With `COCc1c(-c2ccc(NC(=O)Nc3cc(C(F)(F)F)ccc3F)cc2)c2c(N)ncnn2c1CN1CCOCC1` [Example 12, N-{4-[4-amino-6-(methoxymethyl)-7-(morpholin-4-ylmethyl)pyrrolo[2,1-f][1,2,4]triazin-5-yl]phenyl}-N′-[2-fluoro-5-(trifluoromethyl)phenyl]urea], the IC50 is under 10 nM against FGFR1-GST; over 500 nM in the assay on HCT116 cells (lower bound in nM); under 4000 nM with HCT116 cells (upper bound given in μM); over 500 nM in the assay on MDA-MB-231 cells (lower bound in nM); under 5000 nM in the assay with MDA-MB-231 cells (upper bound given in μM); 5 to 10 µM in assay [1] (bounds given in μM).

Regarding `COCc1c(-c2ccc(NC(=O)Nc3cc(C(F)(F)F)ccc3F)cc2)c2c(N)ncnn2c1CN1CCN(C)CC1` [Example 13, N-(4-{4-amino-6-(methoxymethyl)-7-[(4-methylpiperazin-1-yl)methyl]pyrrolo[2,1-f][1,2,4]triazin-5-yl}phenyl)-N′-[2-fluoro-5-(trifluoro-methyl)phenyl]urea], the IC50 against FGFR1-GST is 10 to 100 nM; in the assay on HCT116 cells (lower bound in nM), over 500 nM; in the assay with HCT116 cells (upper bound given in μM) it was under 4000 nM; with MDA-MB-231 cells (lower bound in nM), over 500 nM; in the assay on MDA-MB-231 cells (upper bound given in μM), under 5000 nM; in assay [1] (bounds given in μM), under 5 µM. In assay [1] (lower bound in nM), the IC50 is over 0.5 µM.

Take `COCc1c(-c2ccc(NC(=O)Nc3cc(C(F)(F)F)ccc3F)cc2)c2c(N)ncnn2c1CO` [Example 23, N-{4-[4-amino-7-(hydroxymethyl)-6-(methoxymethyl)-pyrrolo[2,1-f][1,2,4]triazin-5-yl]phenyl}-N′-[2-fluoro-5-(trifluoromethyl)-phenyl]urea]: the IC50 against FGFR1-GST was 10 to 100 nM; in the assay with HCT116 cells (lower bound in nM), over 500 nM; with HCT116 cells (upper bound given in μM) it was under 4000 nM; with MDA-MB-231 cells (lower bound in nM), over 500 nM; with MDA-MB-231 cells (upper bound given in μM), under 5000 nM.

As for `CN1CCN(Cc2c(C(=O)NCC(F)(F)F)c(-c3ccc(NC(=O)Nc4cc(C(F)(F)F)ccc4F)cc3)c3c(N)ncnn23)CC1` [Example 10, 4-amino-5-{4-[({[2-fluoro-5-(trifluoromethyl)-phenyl]amino}carbonyl)amino]phenyl}-7-[(4-methylpiperazin-1-yl)methyl]-N-(2,2,2-trifluoroethyl)pyrrolo[2,1-f][1,2,4]triazine-6-carboxamide], the IC50 is under 10 nM against FGFR1-GST, under 5 µM in assay [1] (bounds given in μM) and over 0.5 µM in assay [1] (lower bound in nM).

Turning to `N#Cc1c(C(=O)NCC(F)(F)F)c(-c2ccc(NC(=O)Nc3cc(C(F)(F)F)ccn3)cc2)c2c(N)ncnn12` [Example 7, 4-amino-7-cyano-N-(2,2,2-trifluoroethyl)-5-{4-[({[4-(trifluoromethyl)pyridin-2-yl]amino}carbonyl)-amino]phenyl}pyrrolo[2,1-f][1,2,4]triazine-6-carboxamide], the IC50 was 10 to 100 nM against FGFR1-GST; over 500 nM with HCT116 cells (lower bound in nM); under 4000 nM in the assay on HCT116 cells (upper bound given in μM); over 500 nM in the assay with MDA-MB-231 cells (lower bound in nM); under 5000 nM in the assay on MDA-MB-231 cells (upper bound given in μM); under 5 µM in assay [1] (bounds given in μM). This molecule also had an IC50 in assay [1] (lower bound in nM) of over 0.5 µM.

Consider `COCc1c(-c2ccc(NC(=O)Nc3cc(C(F)(F)F)ccc3F)cc2)c2c(N)ncnn2c1C(C)O` (stereo not drawn) [Example 25, N-{4-[4-amino-7-(1-hydroxyethyl)-6-(methoxymethyl)pyrrolo[2,1-f][1,2,4]triazin-5-yl]phenyl}-N′-[2-fluoro-5-(trifluoromethyl)phenyl]urea], for which the IC50 was over 500 nM in the assay with HCT116 cells (lower bound in nM) and under 4000 nM with HCT116 cells (upper bound given in μM).

For `Nc1ncnn2c(CN3CCOCC3)c(CO)c(-c3ccc(NC(=O)Nc4cc(C(F)(F)F)ccc4F)cc3)c12` [Example 34, N-4-[4-amino-6-(hydroxymethyl)-7-(morpholin-4-ylmethyl)-pyrrolo[2,1-f][1,2,4]triazin-5-yl]phenyl-N′-[2-fluoro-5-(trifluoromethyl)-phenyl]urea], the IC50 on FGFR1-GST was 10 to 100 nM; in assay [1] (bounds given in μM), under 5 µM; in assay [1] (lower bound in nM) it was over 0.5 µM.

Turning to `Cc1c(-c2ccc(NC(=O)Nc3cc(C(F)(F)F)ccc3F)cc2)c2c(N)ncnn2c1CN1CCOCC1` [Example 111, N-{4-[4-amino-6-methyl-7-(morpholin-4-ylmethyl)pyrrolo[2,1-f][1,2,4]triazin-5-yl]phenyl}-N′-[2-fluoro-5-(trifluoromethyl)phenyl]urea], the results for the IC50 (against FGFR1-GST; in assay [1] (bounds given in μM); in assay [1] (lower bound in nM)) were under 10 nM, under 5 µM and over 0.5 µM, respectively.
